Reference: ChEMBL document CHEMBL5634129, “Design, synthesis, and structure-activity relationships of a novel class of quinazoline derivatives as coronavirus inhibitors” (Eur J Med Chem, 2023)

What was measured:
[1] = Cytotoxicity in human NCI-H460 cells infected with HCoV-OC43 treated for 72 hrs by CPE inhibition assay; type: toxicity, cell-based; conditions: read-out: TC50
Human coronavirus OC43 = experiment: Antiviral activity against HCoV-OC43 infected in human NCI-H460 cells treated for 72 hrs by CPE inhibition assay; type: functional, organism-based; conditions: Betacoronavirus 1, NCI-H460, 72 h
[2] = Selectivity index, ratio of TC50 for human NCI-H460 cells infected with HCoV-OC43 to EC50 for HCoV-OC43 infected in human NCI-H460 cells; type: toxicity, cell-based; conditions: read-out: Selectivity Index

Structure (SMILES)	CC50 at 72 h [1]	EC50 (Human coronavirus OC43)	selectivity ratio [2]
O=[N+]([O-])c1cccc(Nc2ncnc3ccc(Cl)cc23)c1	51.7 µM	4.28 µM	12.1
CCOc1ccc2nc(NC3CC3)nc(Nc3cc(C(F)(F)F)cc(C(F)(F)F)c3)c2c1	4.81 µM	0.31 µM	15.5
COc1ccc2ncnc(Sc3cc(C(F)(F)F)cc(C(F)(F)F)c3)c2c1	96.2 µM	> 55.6 µM	96.2
Fc1cc(Nc2ncnc3ccc(Cl)cc23)cc(C(F)(F)F)c1	5.14 µM	2.47 µM	2.08
FC(F)(F)c1cc(Nc2ncnc3cccnc23)cc(C(F)(F)F)c1	240 µM	32.1 µM	7.5
CN(C)c1ccc(Nc2ncnc3ccc(Cl)cc23)cc1Cl	4.28 µM	> 2.47 µM	
FC(F)(F)c1cc(Nc2ncnc3ccc(Cl)cc23)cc(C(F)(F)F)c1	1.71 µM	0.16 µM	10.8
CCOc1ccc2nc(NCCN3CCN(C)CC3)nc(Nc3cc(C(F)(F)F)cc(C(F)(F)F)c3)c2c1	5.77 µM	0.53 µM	10.9
Clc1ccc2ncnc(Nc3ccc(Br)cc3)c2c1	5.14 µM	> 2.47 µM	
CCOC(=O)c1ccc(Nc2ncnc3ccc(Cl)cc23)c(Cl)c1	32 µM	> 7.41 µM	
FC(F)(F)c1cc(Nc2ncnc3ccc(I)cc23)cc(C(F)(F)F)c1	7.95 µM	0.48 µM	16.6
O=[N+]([O-])c1cnc(Nc2ncnc3ccc(Cl)cc23)nc1	139 µM	> 66.7 µM	
COc1ccc2ncnc(NNC(=O)c3cc(C(F)(F)F)cc(C(F)(F)F)c3)c2c1	289 µM	1.71 µM	289
COC(=O)c1cc(Cl)cc(Nc2ncnc3ccc(OC)cc23)c1	129 µM	1.43 µM	90.4
CCOc1ccc2nc(NCC(=O)OC(C)(C)C)nc(Nc3cc(C(F)(F)F)cc(C(F)(F)F)c3)c2c1	18.5 µM	3.56 µM	5.2
COc1ccc2ncnc(Oc3cc(C(F)(F)F)cc(C(F)(F)F)c3)c2c1	240 µM	> 55.6 µM	240
Fc1ccc2ncnc(Nc3cc(C(F)(F)F)cc(C(F)(F)F)c3)c2c1	12.8 µM	0.88 µM	14.6
CN1CCN(CCNc2ncnc3ccc(Cl)cc23)CC1	> 200 µM	> 66.7 µM	
N#Cc1ccc(Nc2ncnc3ccc(Cl)cc23)cc1	28.6 µM	> 7.41 µM	
CCOc1ccc2nc(NCc3ccco3)nc(Nc3cc(C(F)(F)F)cc(C(F)(F)F)c3)c2c1	10.7 µM	1.19 µM	9
COC(=O)c1cc(Nc2ncnc3ccc(OC)cc23)cc(C(F)(F)F)c1	26.7 µM	0.48 µM	55.6

Structure (SMILES)	CC50 at 72 h [1]	EC50 (Human coronavirus OC43)	selectivity ratio [2]
COC(=O)c1cc(F)cc(Nc2ncnc3ccc(OC)cc23)c1	388 µM	> 55.6 µM	
Clc1ccc2ncnc(NCCN3CCOCC3)c2c1	> 200 µM	155 µM	
Clc1ccc(Nc2ncnc3ccc(Cl)cc23)cc1	12.8 µM	> 7.41 µM	
COc1ccc2ncnc(N3CCN(c4cc(C(F)(F)F)cc(C(F)(F)F)c4)C(=O)C3)c2c1	240 µM	6.17 µM	
CCOc1ccc2nc(NC(C)CCCN(CC)CC)nc(Nc3cc(C(F)(F)F)cc(C(F)(F)F)c3)c2c1 (stereo not given)	3.56 µM	> 2.06 µM	
Clc1ccc2ncnc(Nc3ccccc3Cl)c2c1	96.2 µM	> 22.2 µM	
FC(F)(F)c1cc(CNc2ncnc3ccc(Cl)cc23)cc(C(F)(F)F)c1	388 µM	9.98 µM	
FC(F)(F)c1cc(Nc2ncnc3ccc(Br)cc23)cc(C(F)(F)F)c1	2.47 µM	0.35 µM	7.1
CCOc1ccc2nc(NCC(F)(F)F)nc(Nc3cc(C(F)(F)F)cc(C(F)(F)F)c3)c2c1	32.1 µM	2.06 µM	15.6
O=[N+]([O-])c1ccc(CNc2ncnc3ccc(Cl)cc23)cc1	167 µM	55.6 µM	
Cc1ccc2ncnc(Nc3cc(C(F)(F)F)cc(C(F)(F)F)c3)c2c1	96.2 µM	1.19 µM	80.9
CCCCNc1nc(Nc2cc(C(F)(F)F)cc(C(F)(F)F)c2)c2cc(OCC)ccc2n1	10.7 µM	1.43 µM	7.5
N#Cc1ccc(Nc2ncnc3ccc(Cl)cc23)c(Cl)c1	46.2 µM	> 22.2 µM	
FC(F)(F)c1cc(Nc2ncnc3ccc(C(F)(F)F)cc23)cc(C(F)(F)F)c1	4.28 µM	0.23 µM	18.6
COc1ccc2ncnc(Nc3cc(C#N)cc(C(F)(F)F)c3)c2c1	240 µM	0.48 µM	501
COC(=O)c1cc(Nc2ncnc3ccc(OC)cc23)cc(C(=O)OC)c1	240 µM	55.6 µM	4.3
FC(F)(F)c1cc(Nc2ncnc3ccccc23)cc(C(F)(F)F)c1	17.2 µM	1.43 µM	12.1
COc1ccc2ncnc(Nc3cc(C(F)(F)F)ccc3F)c2c1	15.4 µM	> 6.17 µM	
FC(F)(F)c1cc(Nc2ncnc3cnc(Cl)cc23)cc(C(F)(F)F)c1	1.71 µM	0.15 µM	11.4
Clc1ccc(Nc2ncnc3ccc(Cl)cc23)c(Cl)c1	15.4 µM	> 7.41 µM	
Cc1ccc(Nc2ncnc3ccc(Cl)cc23)c(Cl)c1	28.6 µM	> 7.41 µM	

Structure (SMILES)	CC50 at 72 h [1]	EC50 (Human coronavirus OC43)	selectivity ratio [2]
O=C(O)c1ccc(Nc2ncnc3ccc(Cl)cc23)c(Cl)c1	96.2 µM	> 22.2 µM	
Fc1ccc(Nc2ncnc3ccc(Cl)cc23)cc1	15.4 µM	> 7.41 µM	
COc1ccc2ncnc(Nc3cc([N+](=O)[O-])cc(C(F)(F)F)c3)c2c1	96.2 µM	0.69 µM	140
CCOC(=O)c1ccc(Nc2ncnc3ccc(Cl)cc23)cc1	38.5 µM	> 7.41 µM	
COc1ccc2ncnc(Nc3cc(C(F)(F)F)cc(C(F)(F)F)c3)c2c1	96.2 µM	1.14 µM	
CCOc1ccc2nc(NC3CCCC3)nc(Nc3cc(C(F)(F)F)cc(C(F)(F)F)c3)c2c1	12.8 µM	> 6.17 µM	
COc1cc(/C=C/c2ccc(F)cc2)c(C(=O)O)c(O)c1CC=C(C)C	38.5 µM	12.8 µM	
CC/C=C/c1cc(OC)c(CC=C(C)C)c(O)c1C(=O)O	46.2 µM	> 22.2 µM	
FC(F)(F)c1cc(Nc2ncnc3cc(Cl)ccc23)cc(C(F)(F)F)c1	1.43 µM	0.47 µM	3
COc1ccc2ncnc(Nc3cccc(C(F)(F)F)c3)c2c1	10.7 µM	4.28 µM	2.5
CCCNc1nc(Nc2cc(C(F)(F)F)cc(C(F)(F)F)c2)c2cc(OCC)ccc2n1	6.17 µM	0.69 µM	9
CCN(CC)CCCC(C)Nc1ncnc2ccc(Cl)cc12 (stereo not given)	> 200 µM	> 200 µM	
COc1ccc2ncnc(Nc3cccc(C#N)c3)c2c1	388 µM	> 55.6 µM	
COc1cc(/C=C/c2ccccc2)c(C(=O)O)c(O)c1CC=C(C)C	38.5 µM	22.2 µM	
CN(C)c1ccc(Nc2ncnc3ccc(Cl)cc23)c(Cl)c1	4.28 µM	> 2.47 µM	
O=[N+]([O-])c1ccc(Nc2ncnc3ccc(Cl)cc23)cc1Cl	22.2 µM	> 2.47 µM	
O=[N+]([O-])c1ccc(Nc2ncnc3ccc(Cl)cc23)cc1	46.2 µM	> 7.41 µM	
CCOC(=O)c1c(/C=C/c2ccccc2)cc(OC)c(CC=C(C)C)c1O	> 200 µM	139 µM	
COc1ccc(Nc2ncnc3ccc(Cl)cc23)cc1	12.8 µM	> 7.41 µM	
